Assay results: PubChem BioAssay AID248 (DTP/NCI, 2004)
Where “and” joins values, the source holds several entries; their conditions need not be identical. Equal values may be shown once. Inconclusive results and toxic doses are left out. No stated cut-off is given here; in the data, active means T/C of 150% or more; inactive means T/C below 125%.

System: L1210 leukemia ip in BDF1 mice, survival T/C
Assay: NCI In Vivo Anticancer Drug Screen. Data for tumor model L1210 Leukemia (intraperitoneal) in B6D2F1 (BDF1) mice
Settings: endpoint: mean survival time, higher = longer survival
Procedure, shortened: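 Transplanted-tumor mice were given test agent; controls received vehicle only. Survival readings from the two groups were divided (treated over control).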

[1] = dose: 100.0 mg/kg/injection, schedule: Q01DX009 (ip), vehicle: Klucel (hydroxypropylcellulose) (HPC)
[2] = dose: 100.0 mg/kg/injection, schedule: Q04DX003 (ip), vehicle: Klucel (hydroxypropylcellulose) (HPC)
[3] = dose: 200.0 mg/kg/injection, schedule: Q01DX009 (ip), vehicle: Klucel (hydroxypropylcellulose) (HPC)
[4] = dose: 200.0 mg/kg/injection, schedule: Q04DX003 (ip), vehicle: Klucel (hydroxypropylcellulose) (HPC)
[5] = dose: 400.0 mg/kg/injection, schedule: Q01DX009 (ip), vehicle: Klucel (hydroxypropylcellulose) (HPC)
[6] = dose: 400.0 mg/kg/injection, schedule: Q04DX003 (ip), vehicle: Klucel (hydroxypropylcellulose) (HPC)
[7] = dose: 100.0 mg/kg/injection, schedule: Q01DX001 (ip), vehicle: carboxymethylcellulose (CMC)
[8] = dose: 100.0 mg/kg/injection, schedule: Q04DX003 (ip), vehicle: saline
[9] = dose: 200.0 mg/kg/injection, schedule: Q01DX001 (ip), vehicle: carboxymethylcellulose (CMC)
[10] = dose: 200.0 mg/kg/injection, schedule: Q04DX003 (ip), vehicle: saline
[11] = dose: 400.0 mg/kg/injection, schedule: Q01DX001 (ip), vehicle: carboxymethylcellulose (CMC)
[12] = dose: 100.0 mg/kg/injection, schedule: Q04DX002 (ip), vehicle: Klucel (hydroxypropylcellulose) (HPC)
[13] = dose: 200.0 mg/kg/injection, schedule: Q04DX002 (ip), vehicle: Klucel (hydroxypropylcellulose) (HPC)
[14] = dose: 400.0 mg/kg/injection, schedule: Q04DX002 (ip), vehicle: Klucel (hydroxypropylcellulose) (HPC)
[15] = dose: 100.0 mg/kg/injection, schedule: Q01DX001 (ip), vehicle: saline
[16] = dose: 200.0 mg/kg/injection, schedule: Q01DX001 (ip), vehicle: saline
[17] = dose: 100.0 mg/kg/injection, schedule: Q01DX001 (ip), vehicle: Klucel (hydroxypropylcellulose) (HPC)
[18] = dose: 200.0 mg/kg/injection, schedule: Q01DX001 (ip), vehicle: Klucel (hydroxypropylcellulose) (HPC)
[19] = dose: 400.0 mg/kg/injection, schedule: Q01DX001 (ip), vehicle: Klucel (hydroxypropylcellulose) (HPC)
[20] = dose: 100.0 mg/kg/injection, schedule: Q04DX002 (ip), vehicle: saline with Tween-80
[21] = dose: 200.0 mg/kg/injection, schedule: Q04DX002 (ip), vehicle: saline with Tween-80
[22] = dose: 400.0 mg/kg/injection, schedule: Q04DX002 (ip), vehicle: saline with Tween-80

Measured: T/C

Cc1ccc(C(=O)c2ccc(C)cc2)cc1
inactive: dose: 12.5 mg/kg/injection, schedule: Q04DX002 (ip), vehicle: Klucel (hydroxypropylcellulose) (HPC) 91 % of control | dose: 25.0 mg/kg/injection, schedule: Q04DX002 (ip), vehicle: Klucel (hydroxypropylcellulose) (HPC) 94 % of control | dose: 50.0 mg/kg/injection, schedule: Q04DX002 (ip), vehicle: Klucel (hydroxypropylcellulose) (HPC) 97 % of control | [1] 101 % of control | dose: 100.0 mg/kg/injection, schedule: Q04DX002 (ip), vehicle: saline 101 % of control | [2] 100 % of control | [3] 97 % of control | dose: 200.0 mg/kg/injection, schedule: Q04DX002 (ip), vehicle: saline 101 % of control | [4] 89 % of control | [5] 98 % of control | [6] 100 % of control

CC(=O)CO
inactive: dose: 50.0 mg/kg/injection, schedule: Q01DX001 (ip), vehicle: carboxymethylcellulose (CMC) 98 % of control | [7] 101 % of control | dose: 100.0 mg/kg/injection, schedule: Q01DX009 (ip), vehicle: saline 90 % of control | [8] 93 % of control | [9] 101 % of control | dose: 200.0 mg/kg/injection, schedule: Q01DX009 (ip), vehicle: saline 97 % of control | [10] 96 % of control | [11] 98 % of control | dose: 400.0 mg/kg/injection, schedule: Q01DX009 (ip), vehicle: saline 100 % of control | dose: 400.0 mg/kg/injection, schedule: Q04DX003 (ip), vehicle: saline 101 % of control

O=C(O)C(=O)c1ccccc1
inactive: [8] 92 % of control | [10] 91 % of control

C/C(=N\Sc1cccc([N+](=O)[O-])c1)c1ccccc1O
inactive: [12] 105 % of control | [13] 94 % of control | [14] 94 % of control

O=C(N/N=C/c1ccc([N+](=O)[O-])cc1)c1cccc2ccccc12
inactive: [15] 97 % of control | [16] 89 % of control | dose: 400.0 mg/kg/injection, schedule: Q01DX001 (ip), vehicle: saline 89 % of control

C=CCOc1cc[n+]([O-])cc1
inactive: [15] 100 % of control | [16] 105 % of control

CCN(CC)CCCC(C)Nc1c2ccccc2nc2c(Cl)cccc12 (centres undefined)
inactive: dose: 20.0 mg/kg/injection, schedule: Q01DX Z (ip), vehicle: methylcellulose (MC) 100 % of control and 86 % of control | dose: 30.0 mg/kg/injection, schedule: Q01DX Z (ip), vehicle: methylcellulose (MC) 92 % of control and 87 % of control | dose: 45.0 mg/kg/injection, schedule: Q01DX Z (ip), vehicle: methylcellulose (MC) 95 % of control and 101 % of control | dose: 67.0 mg/kg/injection, schedule: Q01DX Z (ip), vehicle: methylcellulose (MC) 91 % of control | [2] 102 % of control

O=[N+]([O-])CCCl
inactive: dose: 2.5 mg/kg/injection, schedule: Q04DX003 (ip), vehicle: Klucel (hydroxypropylcellulose) (HPC) 104 % of control | dose: 5.0 mg/kg/injection, schedule: Q01DX009 (ip), vehicle: saline 105 % of control | dose: 5.0 mg/kg/injection, schedule: Q04DX003 (ip), vehicle: Klucel (hydroxypropylcellulose) (HPC) 103 % of control | dose: 10.0 mg/kg/injection, schedule: Q01DX009 (ip), vehicle: saline 106 % of control | dose: 10.0 mg/kg/injection, schedule: Q04DX003 (ip), vehicle: Klucel (hydroxypropylcellulose) (HPC) 95 % of control | dose: 20.0 mg/kg/injection, schedule: Q01DX009 (ip), vehicle: saline 117 % of control | dose: 20.0 mg/kg/injection, schedule: Q04DX003 (ip), vehicle: Klucel (hydroxypropylcellulose) (HPC) 89 % of control

CCN1C(=O)CC(SC2CC(=O)N(CC)C2=O)C1=O (centres undefined)
inactive: [7] 100 % of control | [9] 94 % of control | [11] 94 % of control

COc1ccccc1-n1c(O)c(N=Nc2ccc(Br)cc2)c(=O)n(-c2ccc(C)cc2)c1=S
inactive: [17] 109 % of control | [18] 102 % of control | [19] 102 % of control

CC(=O)OCCC(COC(C)=O)n1ccc(=O)[nH]c1=O (centres undefined)
inactive: [20] 91 % of control | [21] 105 % of control | [22] 102 % of control

Nc1ncnc(N)c1NC(=O)CCCc1ccc([N+](=O)[O-])cc1
inactive: dose: 50.0 mg/kg/injection, schedule: Q01DX001 (ip), vehicle: Klucel (hydroxypropylcellulose) (HPC) 102 % of control | [17] 98 % of control | [18] 94 % of control

CCOC(=O)Cc1nc2ccc(C)cc2[nH]1
inactive: [12] 100 % of control | [13] 100 % of control | [14] 115 % of control

CCC(=O)c1ccc(OC)cc1
inactive: [20] 91 % of control | [21] 91 % of control | [22] 91 % of control

C=C1C(=O)OC2CCC3OC3CCC12 (centres undefined) (tested in a mixture with another compound)
inactive: [8] 103 % of control | [10] 95 % of control

Cn1c(N)nc2nc[nH]c2c1=O
inactive: dose: 18.7 mg/kg/injection, schedule: Q01DX Z (ip), vehicle: methylcellulose (MC) 95 % of control | dose: 37.5 mg/kg/injection, schedule: Q01DX Z (ip), vehicle: methylcellulose (MC) 89 % of control

Cc1ccc(S(=O)(=O)/N=C2\SCc3ccccc32)cc1
inactive: dose: 12.5 mg/kg/injection, schedule: Q01DX009 (ip), vehicle: saline 108 % of control | dose: 25.0 mg/kg/injection, schedule: Q01DX009 (ip), vehicle: saline 105 % of control | dose: 50.0 mg/kg/injection, schedule: Q01DX009 (ip), vehicle: saline 94 % of control and 101 % of control | [17] 94 % of control | [18] 88 % of control | [19] 98 % of control

C[n+]1c(/C=C/c2ccc3c(c2)OCO3)ccc2ccccc21
inactive: dose: 25.0 mg/kg/injection, schedule: Q01DX009 (ip), vehicle: saline with Tween-80 108 % of control | dose: 25.0 mg/kg/injection, schedule: Q04DX003 (ip), vehicle: Klucel (hydroxypropylcellulose) (HPC) 106 % of control | dose: 33.0 mg/kg/injection, schedule: Q01DX009 (ip), vehicle: gum acacia 114 % of control | dose: 50.0 mg/kg/injection, schedule: Q01DX009 (ip), vehicle: gum acacia 98 % of control | dose: 50.0 mg/kg/injection, schedule: Q04DX003 (ip), vehicle: Klucel (hydroxypropylcellulose) (HPC) 101 % of control | [2] 95 % of control and 89 % of control

Cc1nnc(Cl)c2ccccc12
inactive: [15] 95 % of control

NC(N)=NC(N)=Nc1ccc2ccccc2c1[N+](=O)[O-]
inactive: [1] 94 % of control | [2] 97 % of control | [3] 100 % of control | [4] 100 % of control | [5] 98 % of control | [6] 95 % of control
